# Reference: article PMC7832312, “Enhancing the Physiochemical Properties of Puerarin via L-Proline Co-Crystallization: Synthesis, Characterization, and Dissolution Studies of Two Phases of Pharmaceutical Co-Crystals” (International Journal of Molecular Sciences, 2021)
# How the values were obtained:
# [1] = Dissolution rate measurement (UV, 250 mL medium, 150 RPM, 2 h, 37 °C); format: physicochemical; settings: 37 °C
# Method: The solubility and dissolution studies of pure PUE, I, and II were measured using a Thermo Scientific Evolution 300 UV spectrometer in deionized water at pH 7.0, gastrointestinal tract at pH 1.2, and phosphate buffer at pH 6.8 solution at 37 °C. The concentration was calculated utilizing a standard curve, which was made by measuring the absorbance of different concentrations at their λmax. A superfluity sum of the sample was added to 10 mL of H2O medium, pH 1.2 and pH 6.8 phosphate, respectively.
# The oversaturated solution was stirred at 500 RPM by magnetic stirring at 37 °C for 24 h and the suspension was filtered through Whatman’s […] syringe channel, diluted sufficiently and the absorbance was measured at their λmax. For the dissolution rate, the sample was specifically poured into 250 mL pH 7.0 water, pH 1.2 gastrointestinal tract, and pH 6.8 phosphates medium and then stirred at 150 RPM for 2h at 37 °C. Each solution was measured by the absorbance at λmax. At customary interims, the solution was replenished with 3 mL of the respective blank solution to maintain an overall steady volume.
# [2] = tested on: CT-26 cancer cell lines; assay: Cytotoxicity evaluation by MTT assay, CT-26; format: cell-based, murine; settings: CT-26, culturing 24 h
# Method: (§1) CT-26 and HEK-293 cell line was purchased from American Type Culture Collection (Manassas, VA, USA). The cell lines were cultured in RPMI 1640 (for CT-26) or DMEM (for HEK-293) containing 10% fetal bovine serum (FBS, Zhejiang Tianhang Biotechnology Co. Ltd., Hangzhou, China) and 1% penicillin/streptomycin (Zhejiang Tianhang Biotechnology Co. Ltd., Hangzhou, China). Cells grew as a monolayer and were detached upon confluence using trypsin (0.5% w/v in PBS, Zhejiang Tianhang Biotechnology Co. Ltd., Hangzhou, China). The cells were harvested from the cell culture medium by incubating in trypsin solution for 3 min. The cells were centrifuged, and the supernatant discarded. A 3 mL portion of serum-supplemented cell culture medium was added to neutralize any residual trypsin. The cells were re-suspended in serum-supplemented RPMI 1640 (for CT-26) or DMEM (for HEK-293) at a concentration of 5 × 10^4 cells per 1 mL. Cells were cultured at 37 °C and 5% CO2 for MTT studies.
# (§2) The CT-26 or HEK-293 cells were seeded at a density of 1 × 10^4 cells per well in 100 µL of complete RPMI 1640 (CT-26) or DMEM (for HEK-293), and cultured for 16 h for attachment. The culture medium was then replaced by a serum-free medium containing various concentrations of pristine PUE, I, and II. […] After incubating the cells at 37 °C for 4 h, the MTT solution was removed and DMSO (100 μL) added to dissolve the formazan crystals formed, and the microplates were agitated for 5 min at a medium rate before the spectrophotometric measurement at a wavelength of 570 nm on a microplate reader. […] The relative cell viability (%) related to control cells was calculated by the formula below: V%=[A]experimental−[A]blank/[A]control−[A]blank×100% where V% is the percentage of cell viability, [A]experimental is the absorbance of the wells culturing the treated cells, [A]blank is the absorbance of the blank, and [A]control is the absorbance of the wells culturing untreated cells.
# [3] = tested on: HEK-293 cell lines; assay: Cytotoxicity evaluation by MTT assay, HEK-293; format: cell-based, human; settings: HEK-293, culturing 24 h
# Method: as §1, §2
smiles,measurement,setting,value
"O=C(O)[C@@H]1CCCN1.O=c1c(-c2ccc(O)cc2)coc2c([C@@H]3O[C@H](CO)[C@@H](O)[C@H](O)[C@H]3O)c(O)ccc12 [I, [PUE][PRO]]",Time-dependent dissolution rate,"[1]; Water, 5 min",0.220 mg/mL
same,Time-dependent dissolution rate,"[1]; Water, 10 min",0.343 mg/mL
same,Time-dependent dissolution rate,"[1]; Water, 15 min",0.452 mg/mL
same,Time-dependent dissolution rate,"[1]; Water, 20 min",0.533 mg/mL
same,Time-dependent dissolution rate,"[1]; Water, 25 min",0.591 mg/mL
same,Time-dependent dissolution rate,"[1]; Water, 30 min",0.674 mg/mL
same,Time-dependent dissolution rate,"[1]; Water, 40 min",0.767 mg/mL
same,Time-dependent dissolution rate,"[1]; Water, 50 min",0.945 mg/mL
same,Time-dependent dissolution rate,"[1]; Water, 60 min",1.045 mg/mL
same,Time-dependent dissolution rate,"[1]; Water, 80 min",1.373 mg/mL
same,Time-dependent dissolution rate,"[1]; Water, 100 min",1.503 mg/mL
same,Time-dependent dissolution rate,"[1]; Water, 120 min",1.645 mg/mL
same,Time-dependent dissolution rate,"[1]; pH 1.2, 5 min",0.013 mg/mL
same,Time-dependent dissolution rate,"[1]; pH 1.2, 10 min",0.035 mg/mL
same,Time-dependent dissolution rate,"[1]; pH 1.2, 15 min",0.122 mg/mL
same,Time-dependent dissolution rate,"[1]; pH 1.2, 20 min",0.192 mg/mL
same,Time-dependent dissolution rate,"[1]; pH 1.2, 25 min",0.249 mg/mL
same,Time-dependent dissolution rate,"[1]; pH 1.2, 30 min",0.356 mg/mL
same,Time-dependent dissolution rate,"[1]; pH 1.2, 40 min",0.588 mg/mL
same,Time-dependent dissolution rate,"[1]; pH 1.2, 50 min",0.711 mg/mL
same,Time-dependent dissolution rate,"[1]; pH 1.2, 60 min",0.958 mg/mL
same,Time-dependent dissolution rate,"[1]; pH 1.2, 80 min",1.159 mg/mL
same,Time-dependent dissolution rate,"[1]; pH 1.2, 100 min",1.383 mg/mL
same,Time-dependent dissolution rate,"[1]; pH 1.2, 120 min",1.603 mg/mL
same,Time-dependent dissolution rate,"[1]; pH 6.8, 5 min",0.207 mg/mL
same,Time-dependent dissolution rate,"[1]; pH 6.8, 10 min",0.291 mg/mL
same,Time-dependent dissolution rate,"[1]; pH 6.8, 15 min",0.384 mg/mL
same,Time-dependent dissolution rate,"[1]; pH 6.8, 20 min",0.493 mg/mL
same,Time-dependent dissolution rate,"[1]; pH 6.8, 25 min",0.570 mg/mL
same,Time-dependent dissolution rate,"[1]; pH 6.8, 30 min",0.664 mg/mL
same,Time-dependent dissolution rate,"[1]; pH 6.8, 40 min",0.786 mg/mL
same,Time-dependent dissolution rate,"[1]; pH 6.8, 50 min",0.850 mg/mL
same,Time-dependent dissolution rate,"[1]; pH 6.8, 60 min",0.918 mg/mL
same,Time-dependent dissolution rate,"[1]; pH 6.8, 80 min",1.183 mg/mL
same,Time-dependent dissolution rate,"[1]; pH 6.8, 100 min",1.265 mg/mL
same,Time-dependent dissolution rate,"[1]; pH 6.8, 120 min",1.303 mg/mL
same,cytotoxicity (MTT cell viability),[2],negligible cytotoxicity
same,cytotoxicity (MTT cell viability),[3],negligible cytotoxicity
